# Data reported in US8093210B2, “Treatment of sepsis with 5-ethyl-1-phenyl-2(1H)-pyridone” (Solanan, Inc., priority 2008, dated 2012).
# How the values were obtained:
# [1] = test system: LPS/D-galactosamine-septic shock; assay: Lethal LPS/D-galactosamine septic shock in rats (Example 2); assay type: in vivo, Juvenile Sprague-Dawley rats; settings: monitored for 66 hours
# Protocol: The methodology utilized in Example 1 was used to treat rats. Juvenile Sprague-Dawley rats were induced with LPS/D-galactosamine-septic shock. The animals were monitored for 66 hours after treatment and the resulting data analyzed by the same statistical tests and criteria as in Example 1.
# IL-12 = assay: Serum IL-12 (ELISA) in LPS/D-galactosamine model of sepsis (Example 5); assay type: in vivo, mice; settings: 90 minutes after the treatment
# Protocol: Mice were treated simultaneously with LPS (10 μg/kg) and D-galactosamine (600 mg/kg) (Galanos C, Freudenberg M A, Reutter W. […] They were anesthetized with halothane and blood was collected at different times by cardiac puncture and centrifuged to separate serum. The serum levels of alanine transaminase (ALT) and aspartate transaminase (AST) were measured by a commercial diagnostic company (Idexx Laboratories). The serum levels of tumor necrosis factor-alpha (TNF-α), interleukin-6 (IL-6) and interleukin-12 (IL-12) were determined by commercially available mouse enzyme-linked immunosorbent assay (ELISA) kits (BD BioSciences, San Jose, Calif.).
# The methodology utilized in Example 4 was used to measure and analyze the serum enzyme data for statistical significance. The serum levels of proinflammatory cytokines between the 5-EPP treated and saline control groups were analyzed for statistical significance by one-way ANOVA and a Tukey's multiple comparison test (Prism™ for Windows 4.02, Graphpad Software, Inc. San Diego, Calif.).
# [2] = test system: cecal ligation and puncture (CLP) model of sepsis; assay: Serum biomarkers and recoverable serum volume in cecal ligation and puncture (CLP) model of sepsis (Example 4); assay type: in vivo, Male Swiss-Webster mice; settings: for level of blood urea nitrogen (BUN) / recoverable blood-serum volume (average volume of serum) / serum level of alanine transaminase (ALT) / serum level of creatine kinase / serum level of glucose: 200 mg/kg ip 2 h before CLP, mean ± SEM
# Protocol: Cecal ligation and puncture (CLP) is a more advanced model of septic shock than those involving lipopolysaccharide (LPS). In this model, as described by Wichterman K A, Baue A E, Chaudry I H (J Surg Res. 1980, 29; 189-201), mice are given intraperitoneal (IP) injections of the test compound or saline (control) prior to the beginning of the surgery. The mice are then anesthetized and a laparotomy is performed. The cecum is isolated and separated from the rest of the intestines by tying it at its base with a suturing thread. The cecum is then punctured with a needle. This facilitates influx of the colonic microflora into the abdominal cavity, which results in polymicrobial-induced peritonitis. Unlike the endotoxin model of septic shock, which is initiated by purified bacterial cell wall products, lipopolysaccharide (LPS), that simulates an acute septic shock, the CLP model more closely mimics clinically encountered signs of septic shock seen in humans as it is triggered by living bacteria.
# Male Swiss-Webster mice, seven weeks old, were injected with 5-EPP (200 mg/kg) or saline (control) by intraperitoneal route two hours prior to the beginning of the surgery. They were anesthetized by a mixture of xylazine and ketamine, and a laparotomy was performed. The cecum was separated from the rest of the intestine, ligated with suture, and then punctured with an 18 gauge needle. Blood was collected by cardiac puncture 3, 6, or 12 hours after CLP and the serum isolated by centrifugation. Analysis of serum transaminases, blood urea nitrogen, creatine kinase, and glucose was carried out by a commercial company (Idexx Laboratories, West Sacramento, Calif.).
# The results are reported as the mean±standard error of the mean with the number of animals in parentheses for each group. The statistical analysis for differences between saline control and 5-EPP pretreated mice was performed using […] (Prism™ for Windows 4.02, Graphpad Software, Inc., San Diego, Calif.). A value of P<0.05 was considered to be the minimum level of statistical significance. Reference values were determined by analyzing serum from mice injected with saline but not subjected to the CLP procedure.
# TNF-α in THP-1 cells = assay: Secreted and cell-associated TNF-α in PMA-transformed THP-1 cells exposed to LPS (ELISA, Example 6); assay type: cell-based, human; settings: 3 hr, mean ± SEM, four replicates; for Secreted TNF-α: THP-1, 1 ng/mL LPS; for Cell-associated TNF-α: THP-1 lysate, 1 ng/mL LPS
# Protocol: The effects of 5-EPP on secreted and cell associated TNF-α was examined in vitro using phorbol myristate acetate-transformed (PMA; Sigma, St. Louis, Mo.) human monocytic cells, THP-1 (ATCC, Manassas, Va.) according to the technique described by Grattendick et al. (International Immunopharmacology 2008, 8; 679-87). Briefly, cells were incubated for 3 hr on 96-well plates with culture media, 1 ng/mL LPS, or 1 ng/mL LPS 0-200 μg/mL 5-EPP before culture media were collected and analyzed for the presence of secreted TNF-α via a commercially available enzyme-linked immunosorbent assay (ELISA) kit (BD Biosciences, San Diego, Calif.). Separately, identically treated cells were lysed and their cell-associated TNF-α levels were determined via ELISA. All treatment groups were simultaneously compared using one-way ANOVA and Tukey's multiple comparison tests.
# The values are expressed in pg/mL as mean±standard error of the mean for four replicates at all concentrations in each case.
# [3] = test system: LPS/D-galactosamine model of septic shock; assay: Lethal LPS/D-galactosamine-induced shock, survival of mice (Example 1); assay type: in vivo; settings: for mortality: 72 hrs post-treatment
# Protocol: Mice were treated with 5-EPP after inducing shock with lipopolysaccharide (LPS) pursuant to established models for lethal LPS-induced shock. The method described by Galanos C, Freudenberg M A, Reutter W. Proc Natl Acad Sci USA. 1979 November; 76 (11):5939-43 was followed. The survival of the mice after treatment with various doses of the agent in LPS/D-galactosamine model of septic shock was monitored. All agents were injected simultaneously via the intraperitoneal route and the response compared to a placebo agent (saline).
# All data were analyzed by Fisher's exact test (Prism™ for Window 4.02, Graphpad Software, Inc., San Diego, Calif.). A value of P<0.05 was considered to be statistically significant.
# Table 1 clearly illustrates that 5-ethyl-1-phenyl-2(1H)-pyridone (5-EPP) protected mice from lethal LPS/D-galactosamine-induced shock at 72 hrs post-treatment.
compound,measurement,setting,value
"CCc1ccc(=O)n(-c2ccccc2)c1 [5-EPP, 5-ethyl-1-phenyl-2-(1H)-pyridone]",mortality,[1]; 75 mg/kg,14.3% mortality
same,mortality,[1]; 200 mg/kg,12.5% mortality
same,serum level of IL-12,IL-12; 50 mg/kg,"2,809 ± 325 pg/mL"
same,serum level of IL-12,IL-12; 100 mg/kg,"1,371 ± 124 pg/mL"
same,serum level of IL-12,IL-12; 200 mg/kg,870 ± 99 pg/mL
same,level of blood urea nitrogen (BUN),[2]; 3 Hours Post-CLP,20.8 ± 0.1 (11) mg/dL
same,recoverable blood-serum volume (average volume of serum),[2]; 3 Hours Post-CLP,238.8 ± 20.11 (13) microliter
same,serum level of alanine transaminase (ALT),[2]; 3 Hours Post-CLP,159.1 ± 21.2 (11) U/L
same,serum level of creatine kinase,[2]; 3 Hours Post-CLP,2790.4 ± 370.8 (11) U/L
same,serum level of glucose,[2]; 3 Hours Post-CLP,303.9 ± 30.8 (11) mg/dL
same,level of blood urea nitrogen (BUN),[2]; 6 Hours Post-CLP,19.4 ± 1.0 (12) mg/dL
same,recoverable blood-serum volume (average volume of serum),[2]; 6 Hours Post-CLP,219.6 ± 16.70 (12) microliter
same,serum level of alanine transaminase (ALT),[2]; 6 Hours Post-CLP,128.9 ± 28.7 (12) U/L
same,serum level of creatine kinase,[2]; 6 Hours Post-CLP,1950.3 ± 244.1 (12) U/L
same,serum level of glucose,[2]; 6 Hours Post-CLP,116.7 ± 7.7 (12) mg/dL
same,level of blood urea nitrogen (BUN),[2]; 12 Hours Post-CLP,23 ± 2.3 (12) mg/dL
same,recoverable blood-serum volume (average volume of serum),[2]; 12 Hours Post-CLP,282.7 ± 27.70 (13) microliter
same,serum level of alanine transaminase (ALT),[2]; 12 Hours Post-CLP,148.2 ± 12.5 (12) U/L
same,serum level of creatine kinase,[2]; 12 Hours Post-CLP,778.5 ± 91.6 (12) U/L
same,serum level of glucose,[2]; 12 Hours Post-CLP,102.9 ± 5.9 (12) mg/dL
same,serum to blood ratio versus saline-control CLP mice,"[2]; 200 mg/kg ip, at any time, data not shown",no significant difference
same,Secreted TNF-α,TNF-α in THP-1 cells; 10 μg/mL 5-EPP,5382.8 ± 91.8 pg/mL
same,Secreted TNF-α,TNF-α in THP-1 cells; 33 μg/mL 5-EPP,3261.5 ± 94.1 pg/mL
same,Secreted TNF-α,TNF-α in THP-1 cells; 100 μg/mL 5-EPP,2073.7 ± 60.7 pg/mL
same,Secreted TNF-α,TNF-α in THP-1 cells; 200 μg/mL 5-EPP,1469.7 ± 58.9 pg/mL
same,Cell-associated TNF-α,TNF-α in THP-1 cells; 10 μg/mL 5-EPP,35.4 ± 3.1 pg/mL
same,Cell-associated TNF-α,TNF-α in THP-1 cells; 33 μg/mL 5-EPP,25.9 ± 1.6 pg/mL
same,Cell-associated TNF-α,TNF-α in THP-1 cells; 100 μg/mL 5-EPP,19.0 ± 0.9 pg/mL
same,Cell-associated TNF-α,TNF-α in THP-1 cells; 200 μg/mL 5-EPP,10.1 ± 1.3 pg/mL
same,mortality,[3]; 25 mg/kg i.p. simultaneously with LPS/D-galactosamine,30% mortality
same,mortality,[3]; 50 mg/kg i.p. simultaneously with LPS/D-galactosamine,5% mortality
same,mortality,[3]; 100 mg/kg i.p. simultaneously with LPS/D-galactosamine,0% mortality
same,onset of lethal shock,[3]; lowest dose (25 mg/kg),delay of the onset of lethal shock
